Laboratory results taken from patent US20220356170A1, “SREBP INHIBITOR COMPRISING A THIOPHENE CENTRAL RING” (Capulus Therapeutics, LLC, priority 2019, published 2022).

Tests used:
Test in all cases: Cancer cell growth inhibition, Sulforhodamine B
Format in all cases: cell-based
HL-60 = details: Homo sapiens; HL-60 (hematological), 72 hr; Responder Cell Lines
Description: (§1) The ability of select compounds to inhibit cell growth in various cancer cell lines are evaluated. […] The cell lines shown in Table 5 have reduced growth by at least 50% at 10 uM or lower over 72 hr treatment in growth media. The cell lines shown in Table 6 have reduced growth by at least 50% with an IC50 greater than 10 uM.
(§2) Six 10-fold compound dilutions are prepared in DMSO (e.g. 10 mM, 1 mM, 100 uM, 10 uM, 1 uM, and 0.1 uM). Single data points are acquired for each concentration. The final concentration of DMSO is 0.1%. The duration of the treatment is 72 hr. Growth inhibition is measured using Sulforhodamine B in a protein staining assay. Activity of the agents is determined by evaluation the following parameters: IC50, GI50, IC10, TGI, LC50, IC90, and GI90 (where these values can be calculated).

22RV1 = details: Homo sapiens; 22RV1 (prostate), 72 hr; Responder Cell Lines
Description: as §1, §2

HEK293 = details: Homo sapiens; HEK293 (kidney), 72 hr; Responder Cell Lines
Description: as §1, §2

MCF7 = details: Homo sapiens; MCF7 (breast), 72 hr; Responder Cell Lines
Description: as §1, §2

JIMT1 = details: Homo sapiens, JIMT-1; JIMT1 (breast), 72 hr; Responder Cell Lines
Description: as §1, §2

ASPC1 = details: Homo sapiens; ASPC1 (pancreas), 72 hr; Responder Cell Lines
Description: as §1, §2

DLD1 = details: Homo sapiens, DLD-1; DLD1 (colon), 72 hr; Non-Responder Cell Lines with IC50 >10 uM or Not Determined
Description: as §1, §2

OVCAR3 = details: Homo sapiens, OVCAR-3, 72 h, OVCAR3 (ovary)
Description: as §1, §2

MDAMB436 = details: Homo sapiens, MDA-MB-436; MDAMB436 (breast), 72 hr; Non-Responder Cell Lines with IC50 >10 uM or Not Determined
Description: as §1, §2

A549 = details: Homo sapiens; A549 (lung), 72 hr; Responder Cell Lines
Description: as §1, §2

NCIH82 = details: Homo sapiens, NCI-H82, 72 h, NCIH82 (lung)
Description: as §1, §2

MINO = details: Homo sapiens, 72 h, MINO (hematological)
Description: as §1, §2

HEPG2 = details: Homo sapiens; HEPG2 (liver), 72 hr; Responder Cell Lines
Description: as §1, §2

SAOS2 = details: Homo sapiens, SAOS-2; SAOS2 (bone), 72 hr; Non-Responder Cell Lines with IC50 >10 uM or Not Determined
Description: as §1, §2

COLO205 = details: Homo sapiens, COLO 205; COLO205 (colon), 72 hr; Responder Cell Lines
Description: as §1, §2

A204 = details: Homo sapiens; A204 (muscle), 72 hr; Responder Cell Lines
Description: as §1, §2

SKNAS = details: Homo sapiens, SK-N-AS; SKNAS (brain), 72 hr; Non-Responder Cell Lines with IC50 >10 uM or Not Determined
Description: as §1, §2

MDAMB435 = details: Homo sapiens, MDA-MB-435; MDAMB435 (skin), 72 hr; Responder Cell Lines
Description: as §1, §2

LOVO = details: Homo sapiens; LOVO (colon), 72 hr; Responder Cell Lines
Description: as §1, §2

HCT15 = details: Homo sapiens, HCT-15; HCT15 (colon), 72 hr; Responder Cell Lines
Description: as §1, §2

CALU6 = details: Homo sapiens, Calu-6; CALU6 (lung), 72 hr; Non-Responder Cell Lines with IC50 >10 uM or Not Determined
Description: as §1, §2

U2OS = details: Homo sapiens; U2OS (bone), 72 hr; Non-Responder Cell Lines with IC50 >10 uM or Not Determined
Description: as §1, §2

BT20 = details: Homo sapiens, BT-20; BT20 (breast), 72 hr; Non-Responder Cell Lines with IC50 >10 uM or Not Determined
Description: as §1, §2

SKMEL28 = details: Homo sapiens, SK-MEL-28; SKMEL28 (skin), 72 hr; Non-Responder Cell Lines with IC50 >10 uM or Not Determined
Description: as §1, §2

NCIH292 = details: Homo sapiens, NCI-H292; NCIH292 (lung), 72 hr; Non-Responder Cell Lines with IC50 >10 uM or Not Determined
Description: as §1, §2

HT1080 = details: Homo sapiens, HT-1080; HT1080 (connective tissue), 72 hr; Responder Cell Lines
Description: as §1, §2

[1] = Non-Responder Cell Lines with IC50 >10 uM or Not Determined

Measured: IC50

CC(C)(O)c1cc(-c2csc(-c3ccc(C(=O)N4CCC(O)CC4)cc3Cl)c2)ccn1 [Compound 1, (3-chloro-4-(4-(2-(2-hydroxypropan-2-yl)pyridin-4-yl)thiophen-2-yl)phenyl)(4-hydroxypiperidin-1-yl)methanone]
> 10 µM: DLD1 | OVCAR3; [1] | MDAMB436 | NCIH82; [1] | MINO; [1] | SAOS2 | SKNAS | CALU6 | U2OS | BT20 | SKMEL28 | NCIH292
< 10 µM: HL-60 | 22RV1 | HEK293 | MCF7 | JIMT1 | ASPC1 | OVCAR3; Responder Cell Lines | A549 | NCIH82; Responder Cell Lines | MINO; Responder Cell Lines | HEPG2 | COLO205 | A204 | MDAMB435 | LOVO | HCT15 | HT1080
